These results are taken from patent US20190062846A1, “COMPOSITIONS AND METHODS FOR SCREENING PEDIATRIC GLIOMAS AND METHODS OF TREATMENT THEREOF” (DANA-FARBER CANCER INSTITUTE, INC., priority 2016, published 2019).

Assay [1] deals with MYB-QKI5 (short variant) fusion protein. Put plainly: Quantity of protein after treatment with DUB inhibitor. Format: cell-based, human. The following applies: after treatment with PR619; FIG. 45. The source says: (§1) FIG. 45 is a graph showing the quantity of truncated MYB or MYB-QKI fusion protein after the treatment with PR619.
(§2) Another possible approach of suppressing cells expressing truncated MYB or MYB-QKI is reducing the amount of the truncated MYB or MYB-QKI protein, for example, by increasing the degradation of this protein. DUBs remove ubiquitination and thereby increase the half-life of proteins. Thus, DUB inhibitors may accelerate the degradation of truncated MYB or MYB-QKI.
(§3) Cells were lysed and subjected to SDS-PAGE gradient gels as previously described3l. Blots were probed with antibodies against MYB (ab45150, Abcam at 1:500 dilution), QKI (A300-183A, Bethyl Laboratories at 1:1,000 dilution) and actin (sc-1615, Santa Cruz Biotechnology at 1:2,000 dilution).

Assay [2] concerns MYB-QKI6 (short variant) fusion protein. The description is as above. The class given is cell-based, human. Particulars: after treatment with PR619; FIG. 45.
Text: as §1, §2, §3

The next assay deals with truncated MYB ("MYBtr"). The description is as above. The class given is cell-based, human. The following applies: after treatment with PR619; FIG. 45.
Text: as §1, §2, §3

In assay [3] the test system is mouse neural stem cells engineered to express MYB-QKI5 (short variant). Put plainly: Percentage viability of mouse neural stem cells after increased doses of inhibitor. The class given is cell-based. Particulars: mNSCs expressing MYB-QKI5 (short variant); doses 0, 0.05, 0.1, 0.3, 0.5, 1 μM; in comparison with GFP-expressing mNSCs; FIG. 42C. The method, then: (§4) FIGS. 42A-D are a set of graphs showing percentage viability of mouse neural stem cells expressing GFP (FIG. 42A), truncated MYB (FIG. 42B), MYB-QKI5 (short variant) (FIG. 42C), and MYB-QKI6 (short variant) (FIG. 42D) after the treatment of increased doses (0, 0.05, 0.1, 0.3, 0.5, and 1 μM) of JQ1, THZ1 (“CDK7i”), and DMSO as negative control.
(§5) FIG. 44 is a graph showing the percentage viability of mouse neural stem cells expressing GFP (“GFP”), truncated MYB (“MYBtr”), MYB-QKI5 (short variant) (“MYBQKI5”), and MYB-QKI6 (short variant) (“MYBQKI6”) after the treatment of increased doses (0, 0.05, 0.1, 0.3, 0.5, and 1 μM) of dasatinib or DMSO as negative control.
(§6) Modifiers of the MYB pathway and key upstream and downstream effectors were examined for their ability to inhibit growth and induce death of cells expressing MYB-QKI fusion protein. […] Thus, cells expressing truncated MYB or MYB-QKI were specifically sensitive to inhibition of BET by JQ1.
(§7) 1,000 cells/well were plated in 96-well plates, with five replicates. Cell viability was measured by assessing ATP content using CellTiter-Glo (Promega). Means±s.e.m. were calculated.

The subject of assay [4] is mouse neural stem cells engineered to express MYB-QKI6 (short variant). The description is as above. Format: cell-based. The following applies: mNSCs expressing MYB-QKI6 (short variant); doses 0, 0.05, 0.1, 0.3, 0.5, 1 μM; in comparison with GFP-expressing mNSCs; FIG. 42D. The method, then:
as §4, §5, §6, §7

Assay [5] has as its system mouse neural stem cells engineered to express truncated MYB. The description is as above. The class given is cell-based. The following applies: mNSCs expressing truncated MYB; doses 0, 0.05, 0.1, 0.3, 0.5, 1 μM; in comparison with GFP-expressing mNSCs; FIG. 42B. The method, then: as §4, §5, §6, §7
For assay [6], the system named is mouse neural stem cells engineered to express MYB-QKI5 (short variant). The experiment in a line: Cell growth of mouse neural stem cells over a time course. Format: cell-based. Particulars: mNSCs expressing MYB-QKI5 (short variant); 0.5 μM or 1 μM; 0, 1, 3, 5 days; in comparison with GFP-expressing mNSCs; FIG. 43C. On the procedure:
(§8) FIGS. 43A-D are a set of graphs showing cell growth of mouse neural stem cells expressing GFP (FIG. 43A), truncated MYB (FIG. 43B), MYB-QKI5 (short variant) (FIG. 43C), and MYB-QKI6 (short variant) (FIG. 43D) over a time course (0, 1, 3, and 5 days) in the presence of 0.5 μM or 1 μM of LY2835219 (“CDK4/6 inhibitor”).
(§9) Inhibition of CDK7 was also examined using a specific CDK7 inhibitor THZ1. […] Thus, cells expressing MYB-QKI were sensitive to inhibition of CDK7 by THZ1. This effect is specific with CDK7. […] Thus, cells expressing truncated MYB or MYB-QKI were specifically sensitive to inhibition of CDK7 by THZ1.
as §7

The test system of assay [7] is mouse neural stem cells engineered to express MYB-QKI6 (short variant). Described as above. The following applies: mNSCs expressing MYB-QKI6 (short variant); 0.5 μM or 1 μM; 0, 1, 3, 5 days; in comparison with GFP-expressing mNSCs; FIG. 43D. The class given is cell-based. On the procedure: as §8, §9, §7
Assay [8] deals with mouse neural stem cells engineered to express truncated MYB. Described as above. Format: cell-based. Particulars: mNSCs expressing truncated MYB; 0.5 μM or 1 μM; 0, 1, 3, 5 days; in comparison with GFP-expressing mNSCs; FIG. 43B. On the procedure:
as §8, §9, §7

For the compound `N#CSc1cc(SC#N)c(N)nc1N` [PR619], the “amount of MYB-QKI5 (short variant) protein” value in assay [1] is listed as “reduced the amount”. The “amount of MYB-QKI6 (short variant) protein” value in assay [2] is “reduced the amount”. Moreover, the “amount of truncated MYB protein” value with truncated MYB ("MYBtr") is listed as “reduced the amount”.
On to `Cc1sc2c(c1C)C(c1ccc(Cl)cc1)=N[C@@H](CC(=O)OC(C)(C)C)c1nnc(C)n1-2` [JQ1], for which the viability of cells result in assay [3], in assay [4] and in assay [5] was “significantly compromised the viability” each time.
For the compound `CN(C)C/C=C/C(=O)Nc1ccc(C(=O)Nc2cccc(Nc3ncc(Cl)c(-c4c[nH]c5ccccc45)n3)c2)cc1` [THZ1], the viability of cells entry in assay [3], in assay [4] and in [5] was “significantly compromised the viability” each time.
In the case of `CCN1CCN(Cc2ccc(Nc3ncc(F)c(-c4cc(F)c5nc(C)n(C(C)C)c5c4)n3)nc2)CC1` [LY2835219], the cell growth entry in assay [6], in assay [7] and in assay [8] was “did not strongly inhibit the growth” throughout.
